Literature values in US20010046957A1, “Method for treating hepatitis C” (priority 1999, published 2001).

Key:
[1] = in vivo
HCV [2] = test system: HCV
yellow fever virus = settings: (Neyts J)
HCV [3] = settings: patients with CHC virus infection following liver transplant, after initiation of MMF therapy for rejection; anecdotal report (Platz KP)
[4] = patients treated at currently recommended doses

For Mycophenolic acid [MPA], which bioavailability [1] is on record?
Its bioavailability is “limited”.

With IFN-α as the compound, how does the sustained response (HCV [2]; IFN-α monotherapy, general CHC populations (Fried M)) read?
The sustained response was 5-20%.

Which antiviral activity (yellow fever virus) does the source give for `COc1c(C)c2c(c(O)c1C/C=C(\C)CCC(=O)OCCN1CCOCC1)C(=O)OC2` [MMF, mycophenolate mofetil] here?
Its antiviral activity is “antiviral activity”.

And the “serum HCV RNA levels” value (HCV [3])?
The value was “decrease in some patients”.

Which results are given for `NC(=O)c1ncn([C@@H]2O[C@H](CO)[C@@H](O)[C@H]2O)n1` [Ribavirin, 1-β-D-ribofuranosyl-1 H-1 ,2,-4-triazole-3-carboxamide]?
significant hemolysis, patients affected [4]: 10-20%; improvement of sustained virological response rates over IFN-α monotherapy (HCV [2]; ribavirin combined with IFNα, CHC (Lai MY; Reichard O)): approximately 2 fold; end of treatment virological response (HCV [2]; ribavirin combined with a pegylated form of IFN-α2A, small pilot study of safety (Sulkowski M.)): 70%; sustained loss of detectable virus (HCV [2]; ribavirin plus IFNα regimen, treated patients (McHutchison JG)): 30 - 40%
